In the NIST ThermoML archive (doi:10.1021/je500050p):
Numbers after ± are expanded uncertainties.

Assay: activity coefficient (dimensionless); of the first substance listed, at infinite dilution; xn = mol fraction of the nth substance listed
Conditions: 101 kPa, Liquid, Chromatography, x1 = 0

activity coefficient (353.15 K)	activity coefficient (373.15 K)	Compound	activity coefficient (323.15 K)	activity coefficient (333.15 K)	activity coefficient (343.15 K)
		Cc1ccccc1C [1,2-dimethylbenzene] + CC1(C)[C@@H]2CC[C@@]1(CS(=O)(=O)[O-])C(=O)C2.CCCCCCCCCCCCCC[N+](CCCCCC)(CCCCCC)CCCCCC	0.49 ± 0.04	0.77 ± 0.05	1.13 ± 0.07
		Cc1cccc(C)c1 [1,3-dimethylbenzene] + CC1(C)[C@@H]2CC[C@@]1(CS(=O)(=O)[O-])C(=O)C2.CCCCCCCCCCCCCC[N+](CCCCCC)(CCCCCC)CCCCCC	0.52 ± 0.04	0.81 ± 0.05	1.16 ± 0.07
		Cc1ccc(C)cc1 [1,4-dimethylbenzene] + CC1(C)[C@@H]2CC[C@@]1(CS(=O)(=O)[O-])C(=O)C2.CCCCCCCCCCCCCC[N+](CCCCCC)(CCCCCC)CCCCCC	0.51 ± 0.04	0.8 ± 0.1	1.17 ± 0.07
		C1COCCO1 [1,4-dioxane] + CC1(C)[C@@H]2CC[C@@]1(CS(=O)(=O)[O-])C(=O)C2.CCCCCCCCCCCCCC[N+](CCCCCC)(CCCCCC)CCCCCC	0.52 ± 0.04	0.74 ± 0.05	1
		C#CCCCCC [1-heptyne] + CC1(C)[C@@H]2CC[C@@]1(CS(=O)(=O)[O-])C(=O)C2.CCCCCCCCCCCCCC[N+](CCCCCC)(CCCCCC)CCCCCC	0.49 ± 0.04	0.78 ± 0.05	1.17 ± 0.07
		C#CCCCC [1-hexyne] + CC1(C)[C@@H]2CC[C@@]1(CS(=O)(=O)[O-])C(=O)C2.CCCCCCCCCCCCCC[N+](CCCCCC)(CCCCCC)CCCCCC	0.46 ± 0.04	0.69 ± 0.05	0.95 ± 0.06
		CCC[N+](=O)[O-] [1-nitropropane] + CC1(C)[C@@H]2CC[C@@]1(CS(=O)(=O)[O-])C(=O)C2.CCCCCCCCCCCCCC[N+](CCCCCC)(CCCCCC)CCCCCC	0.35 ± 0.03	0.55 ± 0.04	0.82 ± 0.05
1.27 ± 0.08	1.25 ± 0.08	CC(C)CC(C)(C)C [2,2,4-trimethylpentane] + CCCCCCCCCCCCCC[N+](CCCCCC)(CCCCCC)CCCCCC.C[C@H](O)C(=O)[O-]	1.33 ± 0.09		
		CC(C)CO [2-methyl-1-propanol] + CC1(C)[C@@H]2CC[C@@]1(CS(=O)(=O)[O-])C(=O)C2.CCCCCCCCCCCCCC[N+](CCCCCC)(CCCCCC)CCCCCC	0.08 ± 0.03	0.15 ± 0.03	0.24 ± 0.03
		CC#N [acetonitrile] + CC1(C)[C@@H]2CC[C@@]1(CS(=O)(=O)[O-])C(=O)C2.CCCCCCCCCCCCCC[N+](CCCCCC)(CCCCCC)CCCCCC	0.46 ± 0.04	0.66 ± 0.05	0.89 ± 0.06
0.44 ± 0.04	0.43 ± 0.04	CC#N [acetonitrile] + CCCCCCCCCCCCCC[N+](CCCCCC)(CCCCCC)CCCCCC.C[C@H](O)C(=O)[O-]	0.45 ± 0.04		
		c1ccccc1 [benzene] + CC1(C)[C@@H]2CC[C@@]1(CS(=O)(=O)[O-])C(=O)C2.CCCCCCCCCCCCCC[N+](CCCCCC)(CCCCCC)CCCCCC	0.36 ± 0.03	0.51 ± 0.04	0.69 ± 0.05
0.38 ± 0.03	0.39 ± 0.03	c1ccccc1 [benzene] + CCCCCCCCCCCCCC[N+](CCCCCC)(CCCCCC)CCCCCC.C[C@H](O)C(=O)[O-]	0.38 ± 0.03		
		CCCCO [butan-1-ol] + CC1(C)[C@@H]2CC[C@@]1(CS(=O)(=O)[O-])C(=O)C2.CCCCCCCCCCCCCC[N+](CCCCCC)(CCCCCC)CCCCCC	0.09 ± 0.03	0.15 ± 0.03	0.27 ± 0.03
		CCC(C)=O [butanone] + CC1(C)[C@@H]2CC[C@@]1(CS(=O)(=O)[O-])C(=O)C2.CCCCCCCCCCCCCC[N+](CCCCCC)(CCCCCC)CCCCCC	0.43 ± 0.04	0.57 ± 0.04	0.73 ± 0.05
		C1CCCCC1 [cyclohexane] + CC1(C)[C@@H]2CC[C@@]1(CS(=O)(=O)[O-])C(=O)C2.CCCCCCCCCCCCCC[N+](CCCCCC)(CCCCCC)CCCCCC	0.69 ± 0.05	0.95 ± 0.06	1.24 ± 0.08
0.73 ± 0.05	0.71 ± 0.05	C1CCCCC1 [cyclohexane] + CCCCCCCCCCCCCC[N+](CCCCCC)(CCCCCC)CCCCCC.C[C@H](O)C(=O)[O-]	0.77 ± 0.05		
		CCCCCCCCCC [decane] + CC1(C)[C@@H]2CC[C@@]1(CS(=O)(=O)[O-])C(=O)C2.CCCCCCCCCCCCCC[N+](CCCCCC)(CCCCCC)CCCCCC	1.52 ± 0.1	2.41 ± 0.16	3.63 ± 0.25

activity coefficient (353.15 K)	activity coefficient (373.15 K)	Compound	activity coefficient (323.15 K)	activity coefficient (333.15 K)	activity coefficient (343.15 K)
1.63 ± 0.11	1.59 ± 0.11	CCCCCCCCCC [decane] + CCCCCCCCCCCCCC[N+](CCCCCC)(CCCCCC)CCCCCC.C[C@H](O)C(=O)[O-]	1.67 ± 0.11		
		ClCCl [dichloromethane] + CC1(C)[C@@H]2CC[C@@]1(CS(=O)(=O)[O-])C(=O)C2.CCCCCCCCCCCCCC[N+](CCCCCC)(CCCCCC)CCCCCC	0.09 ± 0.03	0.15 ± 0.03	0.22 ± 0.03
0.08 ± 0.03	0.1	ClCCl [dichloromethane] + CCCCCCCCCCCCCC[N+](CCCCCC)(CCCCCC)CCCCCC.C[C@H](O)C(=O)[O-]	0.06		
		CCOCC [diethyl ether] + CC1(C)[C@@H]2CC[C@@]1(CS(=O)(=O)[O-])C(=O)C2.CCCCCCCCCCCCCC[N+](CCCCCC)(CCCCCC)CCCCCC	0.73 ± 0.05	0.96 ± 0.06	1.14 ± 0.07
		CC(C)OC(C)C [diisopropyl ether] + CC1(C)[C@@H]2CC[C@@]1(CS(=O)(=O)[O-])C(=O)C2.CCCCCCCCCCCCCC[N+](CCCCCC)(CCCCCC)CCCCCC	1	1.39 ± 0.09	1.77 ± 0.12
1.08 ± 0.07	1.06 ± 0.07	CC(C)OC(C)C [diisopropyl ether] + CCCCCCCCCCCCCC[N+](CCCCCC)(CCCCCC)CCCCCC.C[C@H](O)C(=O)[O-]	1.13 ± 0.07		
		CCCCCCCCCCCC [dodecane] + CC1(C)[C@@H]2CC[C@@]1(CS(=O)(=O)[O-])C(=O)C2.CCCCCCCCCCCCCC[N+](CCCCCC)(CCCCCC)CCCCCC	1.72 ± 0.12	3.15 ± 0.22	5.14 ± 0.35
		CCO [ethanol] + CC1(C)[C@@H]2CC[C@@]1(CS(=O)(=O)[O-])C(=O)C2.CCCCCCCCCCCCCC[N+](CCCCCC)(CCCCCC)CCCCCC	0.1	0.17 ± 0.03	0.26 ± 0.03
0.03	0.04	CCO [ethanol] + CCCCCCCCCCCCCC[N+](CCCCCC)(CCCCCC)CCCCCC.C[C@H](O)C(=O)[O-]	0.03		
		CCc1ccccc1 [ethylbenzene] + CC1(C)[C@@H]2CC[C@@]1(CS(=O)(=O)[O-])C(=O)C2.CCCCCCCCCCCCCC[N+](CCCCCC)(CCCCCC)CCCCCC	0.49 ± 0.04	0.76 ± 0.05	1.11 ± 0.07
0.56 ± 0.04	0.57 ± 0.04	CCc1ccccc1 [ethylbenzene] + CCCCCCCCCCCCCC[N+](CCCCCC)(CCCCCC)CCCCCC.C[C@H](O)C(=O)[O-]	0.56 ± 0.04		
		CCCCCCC [heptane] + CC1(C)[C@@H]2CC[C@@]1(CS(=O)(=O)[O-])C(=O)C2.CCCCCCCCCCCCCC[N+](CCCCCC)(CCCCCC)CCCCCC	1.14 ± 0.07	1.57 ± 0.1	2.14 ± 0.15
1.17 ± 0.07	1.16 ± 0.07	CCCCCCC [heptane] + CCCCCCCCCCCCCC[N+](CCCCCC)(CCCCCC)CCCCCC.C[C@H](O)C(=O)[O-]	1.22 ± 0.08		
		C=CCCCC [hex-1-ene] + CC1(C)[C@@H]2CC[C@@]1(CS(=O)(=O)[O-])C(=O)C2.CCCCCCCCCCCCCC[N+](CCCCCC)(CCCCCC)CCCCCC	0.85 ± 0.05	1.13 ± 0.07	1.75 ± 0.12
0.95 ± 0.06	0.97 ± 0.06	C=CCCCC [hex-1-ene] + CCCCCCCCCCCCCC[N+](CCCCCC)(CCCCCC)CCCCCC.C[C@H](O)C(=O)[O-]	0.93 ± 0.06		
		CCCCCC [hexane] + CC1(C)[C@@H]2CC[C@@]1(CS(=O)(=O)[O-])C(=O)C2.CCCCCCCCCCCCCC[N+](CCCCCC)(CCCCCC)CCCCCC	1.05 ± 0.07	1.54 ± 0.1	1.81 ± 0.12
1.06 ± 0.07	1.06 ± 0.07	CCCCCC [hexane] + CCCCCCCCCCCCCC[N+](CCCCCC)(CCCCCC)CCCCCC.C[C@H](O)C(=O)[O-]	1.11 ± 0.07		
		CO [methanol] + CC1(C)[C@@H]2CC[C@@]1(CS(=O)(=O)[O-])C(=O)C2.CCCCCCCCCCCCCC[N+](CCCCCC)(CCCCCC)CCCCCC	0.08 ± 0.03	0.13 ± 0.03	0.2

Compound	activity coefficient (353.15 K)	activity coefficient (373.15 K)	activity coefficient (323.15 K)	activity coefficient (333.15 K)	activity coefficient (343.15 K)
Cc1ccccc1C [1,2-dimethylbenzene] + CCCCCCCCCCCCCC[N+](CCCCCC)(CCCCCC)CCCCCC.C[C@H](O)C(=O)[O-]	0.55 ± 0.04	0.58 ± 0.04	0.53 ± 0.04		
Cc1cccc(C)c1 [1,3-dimethylbenzene] + CCCCCCCCCCCCCC[N+](CCCCCC)(CCCCCC)CCCCCC.C[C@H](O)C(=O)[O-]	0.59 ± 0.04	0.6 ± 0.1	0.57 ± 0.04		
Cc1ccc(C)cc1 [1,4-dimethylbenzene] + CCCCCCCCCCCCCC[N+](CCCCCC)(CCCCCC)CCCCCC.C[C@H](O)C(=O)[O-]	0.58 ± 0.04	0.58 ± 0.04	0.58 ± 0.04		
CCC[N+](=O)[O-] [1-nitropropane] + CCCCCCCCCCCCCC[N+](CCCCCC)(CCCCCC)CCCCCC.C[C@H](O)C(=O)[O-]	0.34 ± 0.03	0.36 ± 0.03	0.33 ± 0.03		
CCOCC [diethyl ether] + CCCCCCCCCCCCCC[N+](CCCCCC)(CCCCCC)CCCCCC.C[C@H](O)C(=O)[O-]	0.79 ± 0.05	0.77 ± 0.05	0.84 ± 0.05		
